Literature values in patent US20080102144A1, “FAT BETA-OXIDATION ENHANCING AND CARBOHYDRATE ABSORPTION INHIBITION SUPPLEMENT” (priority 2006, published 2008).
Read-outs that look alike come from different tables or passages of the source.

What was measured:
[1] = tested on: hepatic glucose-6-phosphate (G-6-P); details: rate-limiting step in gluconeogenesis
[2] = tested on: carnitine palmitoyltransferase; details: 0.5% and 1.0% supplemented diets after 6 days
[3] = human studies, as opposed to triacylglycerol, no increase in energy expenditure
[4] = 16 weeks, versus triacylglycerol
[5] = mice

For `O=C(/C=C/c1ccc(O)c(O)c1)O[C@@H]1C[C@](O)(C(=O)O)C[C@@H](O)[C@H]1O` [chlorogenic acid], the “inhibition of hepatic glucose-6-phosphate (G-6-P)” value [1] is listed as “selectively inhibit”, the “cell cycle phase of proliferation arrest” value (3T3-preadipocyte cells; 3T3-preadipocyte cells) is listed as “G1 phase” and the “proliferation of 3T3-preadipocyte cells” value (3T3-preadipocyte cells; addition to 3T3-preadipocyte tissue cultures) is listed as “inhibited the proliferation in both and a time- and dose-dependant manner”. The “carnitine palmitoyltransferase activity in the liver” value [2] was “did not enhance”.
In the case of diacylglycerol, the “β-oxidation of fatty acids” value [3] is listed as “increase”, the body mass index [4] is listed as “significant decrease” and the body weight [4] is listed as “significant decrease”. The “total fat area as assessed by CT scan” value [4] was “significantly reduced”, the waist circumference [4] was “significant decrease” and the hepatic fat oxidation (after a single dose, compared to triacylglycerol) was “significant increase”. For the same molecule, the “β-oxidation of fatty acids” value (animal studies, compared against triacylglycerol) was “increase”, the “glucose-6-phophate dehydrogenase, malic enzyme, fatty acid synthase and fatty acid synthesis” value (rats fed diacylglycerol) was “lower” and the “mitochondrial and peroxisome oxidation of palmtoyl-CoA in liver homogenates” value (rats fed diacylglycerol) was “increased”.
In the case of `Cn1c(=O)c2c(ncn2C)n(C)c1=O` [caffeine], the “total serum triglyceride levels” value [5] is given as “decreased”.
